Consider two molecules from ChEMBL document CHEMBL1141668, “Synthesis and biological activity of imidazopyridine anticoccidial agents: Part II” (Eur J Med Chem, 2008).

The target of assay [1] is cGMP-dependent protein kinase (Eimeria tenella, UniProt Q8MMZ8). In words: Inhibition of Eimeria tenella cGMP-dependent protein kinase.
For assay [2], the system named is Eimeria tenella. Put plainly: Anticoccidial activity against Eimeria tenella in chickens assessed as reduction of oocysts at 6.25 ppm measured after 8 days by ExMAC assay relative to untreated control. The class given is functional. Also noted: scale not given: the % may be the effect or the level left.
For assay [3], the system named is Eimeria tenella. Put plainly: Anticoccidial activity against Eimeria tenella in chickens assessed as reduction of oocysts at 3.1 ppm measured after 8 days by ExMAC assay relative to untreated control. The class given is functional. Also on record: scale not given: the % may be the effect or the level left.
Assay [4] deals with Eimeria acervulina. Put plainly: Anticoccidial activity against Eimeria acervulina in chickens assessed as reduction of oocysts at 6.25 ppm measured after 8 days by ExMAC assay relative to untreated control. It is filed as functional. Also noted: scale not given: the % may be the effect or the level left.
Assay [5] has as its system Eimeria acervulina. In words: Anticoccidial activity against Eimeria acervulina in chickens assessed as reduction of oocysts at 3.1 ppm measured after 8 days by ExMAC assay relative to untreated control. The class given is functional. Also on record: scale not given: the % may be the effect or the level left.
Assay [6] concerns Eimeria mitis. In words: Anticoccidial activity against Eimeria mitis in chickens assessed as reduction of oocysts at 6.25 ppm measured after 8 days by ExMAC assay relative to untreated control. It is filed as functional. Also on record: scale not given: the % may be the effect or the level left.
Assay [7] relates to Eimeria mitis. In words: Anticoccidial activity against Eimeria mitis in chickens assessed as reduction of oocysts at 3.1 ppm measured after 8 days by ExMAC assay relative to untreated control. The class given is functional. Also noted: scale not given: the % may be the effect or the level left.
The subject of assay [8] is Eimeria maxima. In words: Anticoccidial activity against Eimeria maxima in chickens assessed as reduction of oocysts at 6.25 ppm measured after 8 days by ExMAC assay relative to untreated control. It is filed as functional. Also noted: scale not given: the % may be the effect or the level left.
For assay [9], the system named is Eimeria maxima. In words: Anticoccidial activity against Eimeria maxima in chickens assessed as reduction of oocysts at 3.1 ppm measured after 8 days by ExMAC assay relative to untreated control. The class given is functional. Also on record: scale not given: the % may be the effect or the level left.
The test system of assay [10] is Eimeria maxima. In words: Anticoccidial activity against Eimeria maxima in chickens assessed as reduction of oocysts at 12 ppm measured after 8 days by ExMAC assay relative to untreated control. It is filed as functional. Also noted: scale not given: the % may be the effect or the level left.
The subject of assay [11] is Eimeria maxima. In words: Anticoccidial activity against Eimeria maxima in chickens assessed as reduction of oocysts at 6 ppm measured after 8 days by ExMAC assay relative to untreated control. The class given is functional. Also noted: scale not given: the % may be the effect or the level left.
Assay [12] has as its system Eimeria maxima. Put plainly: Anticoccidial activity against Eimeria maxima in chickens assessed as reduction of oocysts at 3 ppm measured after 8 days by ExMAC assay relative to untreated control. It is filed as functional. Also on record: scale not given: the % may be the effect or the level left.
Assay [13] deals with Eimeria tenella. In words: Anticoccidial activity against Eimeria tenella in chickens assessed as reduction of oocysts at 12 ppm measured after 8 days by ExMAC assay relative to untreated control. It is filed as functional. Also noted: scale not given: the % may be the effect or the level left.
Assay [14] concerns Eimeria tenella. In words: Anticoccidial activity against Eimeria tenella in chickens assessed as reduction of oocysts at 6 ppm measured after 8 days by ExMAC assay relative to untreated control. The class given is functional. Also on record: scale not given: the % may be the effect or the level left.
Assay [15] has as its system Eimeria tenella. In words: Anticoccidial activity against Eimeria tenella in chickens assessed as reduction of oocysts at 3 ppm measured after 8 days by ExMAC assay relative to untreated control. The class given is functional. Also on record: scale not given: the % may be the effect or the level left.
Assay [16] deals with Eimeria acervulina. In words: Anticoccidial activity against Eimeria acervulina in chickens assessed as reduction of oocysts at 12 ppm measured after 8 days by ExMAC assay relative to untreated control. The class given is functional. Also on record: scale not given: the % may be the effect or the level left.
Assay [17] relates to Eimeria acervulina. In words: Anticoccidial activity against Eimeria acervulina in chickens assessed as reduction of oocysts at 6 ppm measured after 8 days by ExMAC assay relative to untreated control. The class given is functional. Also on record: scale not given: the % may be the effect or the level left.
Assay [18] relates to Eimeria acervulina. In words: Anticoccidial activity against Eimeria acervulina in chickens assessed as reduction of oocysts at 3 ppm measured after 8 days by ExMAC assay relative to untreated control. It is filed as functional. Also noted: scale not given: the % may be the effect or the level left.
Assay [19] deals with Eimeria mitis. In words: Anticoccidial activity against Eimeria mitis in chickens assessed as reduction of oocysts at 12 ppm measured after 8 days by ExMAC assay relative to untreated control. Also noted: scale not given: the % may be the effect or the level left. The class given is functional.
The test system of assay [20] is Eimeria mitis. Put plainly: Anticoccidial activity against Eimeria mitis in chickens assessed as reduction of oocysts at 6 ppm measured after 8 days by ExMAC assay relative to untreated control. The class given is functional. Also noted: scale not given: the % may be the effect or the level left.
Assay [21] relates to Eimeria mitis. Put plainly: Anticoccidial activity against Eimeria mitis in chickens assessed as reduction of oocysts at 3 ppm measured after 8 days by ExMAC assay relative to untreated control. The class given is functional. Also noted: scale not given: the % may be the effect or the level left.

Sequence of cGMP-dependent protein kinase (Q8MMZ8 whole entry): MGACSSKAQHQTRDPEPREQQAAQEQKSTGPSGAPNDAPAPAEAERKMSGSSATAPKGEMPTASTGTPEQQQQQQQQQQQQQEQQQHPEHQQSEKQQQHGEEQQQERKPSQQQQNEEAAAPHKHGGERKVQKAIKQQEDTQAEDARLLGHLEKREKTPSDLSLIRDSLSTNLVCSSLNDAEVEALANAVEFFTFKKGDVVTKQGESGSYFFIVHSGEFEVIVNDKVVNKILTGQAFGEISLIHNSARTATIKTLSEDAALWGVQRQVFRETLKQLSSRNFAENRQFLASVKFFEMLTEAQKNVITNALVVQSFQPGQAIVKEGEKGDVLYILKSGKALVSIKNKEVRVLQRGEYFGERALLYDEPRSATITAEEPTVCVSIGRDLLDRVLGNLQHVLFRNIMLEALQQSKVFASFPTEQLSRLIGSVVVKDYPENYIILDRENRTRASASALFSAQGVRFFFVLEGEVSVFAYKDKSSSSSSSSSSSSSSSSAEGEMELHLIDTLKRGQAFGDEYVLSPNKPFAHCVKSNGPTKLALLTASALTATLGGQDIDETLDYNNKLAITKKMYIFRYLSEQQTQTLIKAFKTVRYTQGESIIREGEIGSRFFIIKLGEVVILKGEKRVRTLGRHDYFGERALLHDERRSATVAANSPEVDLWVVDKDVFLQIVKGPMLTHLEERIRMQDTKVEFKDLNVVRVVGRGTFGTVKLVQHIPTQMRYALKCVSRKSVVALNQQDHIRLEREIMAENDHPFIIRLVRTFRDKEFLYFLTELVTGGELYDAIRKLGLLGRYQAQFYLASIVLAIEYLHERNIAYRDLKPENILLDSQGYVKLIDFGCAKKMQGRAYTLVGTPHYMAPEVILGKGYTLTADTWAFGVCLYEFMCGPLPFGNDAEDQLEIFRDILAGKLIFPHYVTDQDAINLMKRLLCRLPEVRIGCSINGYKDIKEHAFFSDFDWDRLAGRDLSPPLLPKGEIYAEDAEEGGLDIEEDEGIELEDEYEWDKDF

By IC50 is commonly meant the concentration that inhibits the measured activity by half. On to `CC(c1ccn2c(-c3ccnc(N)n3)c(-c3ccc(F)cc3)nc2c1)N(C)C` (configuration not stated), for which 0.09 nM corresponded to half-maximal inhibition in assay [1] (IC50). The Activity with Eimeria tenella [2] amounted to 100%; in the assay with Eimeria tenella [3] it was 100%; in the assay on Eimeria acervulina [4], 100%; in the assay on Eimeria acervulina [5], 80%; in the assay on Eimeria mitis [6], 100%; in the assay with Eimeria mitis [7], 80%. Moreover, the Activity in the assay on Eimeria maxima [8] is less than 50%; with Eimeria maxima [9], 100%.
As to `CC(C)(N)c1ccn2c(-c3ccnc(N)n3)c(-c3ccc(F)cc3)nc2c1`, the Activity with Eimeria maxima [10] is 100%; in the assay on Eimeria maxima [11] it was 80%; with Eimeria maxima [12], 80%; in the assay with Eimeria tenella [13] it was 100%; in the assay with Eimeria tenella [14], 80%; in the assay on Eimeria tenella [15], less than 50%. The Activity is given as 80% in the assay on Eimeria acervulina [16]; 80% in the assay on Eimeria acervulina [17]; 50% with Eimeria acervulina [18]; less than 50% in the assay with Eimeria mitis [19]; less than 50% in the assay on Eimeria mitis [20]; less than 50% in the assay with Eimeria mitis [21]. In [1], the IC50 was 0.145 nM.
